Where two headings read alike, the source gives them in different places.
Assays:
[1] = tested on: phosphorylated 4E-BP1 Thr37/46 (p4E-BP1 Thr37/46), mTORC1 activity, PC3 cells; assay: mTOR target engagement assay, immunofluorescent cell-based, p4E-BP1 Thr37/46 readout (mTORC1 activity); conditions: Homo sapiens, read-out: p4E-BP1 Thr37/46 IC50
Summary of the method: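 Read-out is fluorescence intensity of immunostained p4E-BP1 Thr37/46 in fixed PC3 cells, fitted to a logistic curve for IC50 with DMSO-only wells as top. Cells had been exposed to serial compound dilutions for ninety minutes at 37° C in 5% FBS medium with 0.25% DMSO.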

[2] = tested on: phosphorylated AKT Ser473 (pAKT S473), mTORC2 activity, PC3 cells; assay: mTOR target engagement assay, immunofluorescent cell-based, pAKT S473 readout (mTORC2 activity); conditions: Homo sapiens
Summary of the method: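 After blocking, cells were stained overnight at 4 °C with anti-pAKT S473 antibody, then a fluorescent secondary; inhibition was read as reduced fluorescence intensity.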

[3] = PC-3, PC3 cells, compound treatment ninety minutes at 37° C.
[4] = PC-3, Table 7-9 (no column head printed; column order as in the neighbouring tables), PC3 cells

| SMILES | IC50 ([1]; PC-3, Table 7-8, PC3 cells) [nM] | IC50 ([2]; PC-3, Table 7-8, PC3 cells) [nM] | other results |
| --- | --- | --- | --- |
| CS(=O)(=O)c1c([C@@H]2C[C@H]3CC[C@@H](C2)N3C(=O)c2nnc[nH]2)nc2c(-c3ccc(CO)nc3)cnn2c1N [Compound 7.35, ((1R,3s,5S)-3-(7-amino-3-(6-(hydroxymethyl)pyridin-3-yl)-6-(methylsulfonyl)pyra-zolo[1,5-a]pyrimidin-5-yl)-8-azabicyclo[3.2.1]octan-8-yl)(4H-1,2,4-triazol-3-yl)methanone] |  |  | IC50 ([1]; PC-3, Table 7-5, PC3 cells): 100 to 1000 nM; IC50 ([2]; PC-3, Table 7-5, PC3 cells): 100 to 1000 nM |
| CC(=O)c1c([C@@H]2C[C@H]3CC[C@@H](C2)N3C(=O)c2nnc[nH]2)nc2c(-c3cnc(C(C)O)s3)cnn2c1N (stereo partly drawn) [Compound 7.36, 1-(5-((1R,3s,5S)-8-(4H-1,2,4-triazole-3-carbonyl)-8-azabicyclo[3.2.1]octan-3-yl)-7-amino-3-(2-(1-hydroxyethyl)thiazol-5-yl)pyrazolo[1,5-a]pyrimidin-6-yl)ethanone] |  |  | IC50 [1, 3]: 1000 to 10000 nM; IC50 [2, 3]: 1000 to 10000 nM |
| CC(C)(O)c1ccc(-c2cnn3c(N)c(C4CC4)c([C@@H]4C[C@H]5CC[C@@H](C4)N5C(=O)c4nnc[nH]4)nc23)cn1 [Compound 7.39, ((1R,3s,5S)-3-(7-amino-6-cyclopropyl-3-(6-(2-hydroxypropan-2-yl)pyridin-3-yl)pyrazolo[1,5-a]pyrimidin-5-yl)-8-azabicyclo[3.2.1]octan-8-yl)(4H-1,2,4-triazol-3-yl)methanone] | 1 to 100 | 1 to 100 |  |
| CC(=O)c1c([C@@H]2C[C@H]3CC[C@@H](C2)N3C(=O)c2nnc[nH]2)nc2c(-c3ccc(C4(O)CCC4)nc3)cnn2c1N [Compound 7.40, 1-(5-((1R,3s,5S)-8-(4H-1,2,4-triazole-3-carbonyl)-8-azabicyclo[3.2.1]octan-3-yl)-7-amino-3-(6-(1-hydroxycyclobutyl)pyridin-3-yl)pyrazolo[1,5-a]pyrimidin-6-yl)ethanone] | 1 to 100 | 1 to 100 |  |
| CS(=O)(=O)c1c([C@@H]2C[C@H]3CC[C@@H](C2)N3C(=O)c2nnc[nH]2)nc2c(-c3ccc(C4(O)CCC4)nc3)cnn2c1N [Compound 7.41, ((1R,3s,5S)-3-(7-amino-3-(6-(1-hydroxycyclobutyl)pyridin-3-yl)-6-(methylsulfonyl)pyrazolo [1,5-a]pyrimidin-5-yl)-8-azabicyclo[3.2.1]octan-8-yl)(4H-1,2,4-triazol-3-yl)methanone] | 1 to 100 | 1 to 100 |  |
| Nc1c(Br)c([C@@H]2C[C@H]3CC[C@@H](C2)N3C(=O)c2nnc[nH]2)nc2c(-c3ccc(C4(O)CCC4)nc3)cnn12 [Compound 7.42, ((1R,3s,5S)-3-(7-amino-6-bromo-3-(6-(1-hydroxycyclobutyl)pyridin-3-yl)pyrazolo[1,5-a]pyrimidin-5-yl)-8-azabicyclo[3.2.1]octan-8-yl)(4H-1,2,4-triazol-3-yl)methanone] | 100 to 1000 | 1000 to 10000 |  |
| Nc1c(C2CC2)c([C@@H]2C[C@H]3CC[C@@H](C2)N3C(=O)c2nnc[nH]2)nc2c(-c3ccc(C4(O)CCC4)nc3)cnn12 [Compound 7.43, ((1R,3s,5S)-3-(7-amino-6-cyclopropyl-3-(6-(1-hydroxycyclobutyl)pyridin-3-yl)pyrazolo[1,5-a]pyrimidin-5-yl)-8-azabicyclo[3.2.1]octan-8-yl)(4H-1,2,4-triazol-3-yl)methanone] | 100 to 1000 | 100 to 1000 |  |
| CC(=O)c1c([C@@H]2C[C@H]3CC[C@@H](C2)N3C(=O)c2nnc[nH]2)nc2c(-c3ccc(C4(O)COC4)nc3)cnn2c1N [Compound 7.45, 1-(5-((1R,3s,5S)-8-(4H-1,2,4-triazole-3-carbonyl)-8-azabicyclo[3.2.1]octan-3-yl)-7-amino-3-(6-(3-hydroxyoxetan-3-yl)pyridin-3-yl)pyrazolo[1,5-a]pyrimidin-6-yl)ethanone] | 100 to 1000 | 100 to 1000 |  |
| CS(=O)(=O)c1c([C@@H]2C[C@H]3CC[C@@H](C2)N3C(=O)c2nnc[nH]2)nc2c(-c3ccc(C4(O)CCCC4)nc3)cnn2c1N [Compound 7.46, ((1R,3s,5S)-3-(7-amino-3-(6-(1-hydroxycyclopentyl)pyridin-3-yl)-6-(methylsulfonyl)pyrazolo [1,5-a]pyrimidin-5-yl)-8-azabicyclo[3.2.1]octan-8-yl)(4H-1,2,4-triazol-3-yl)methanone] | 1 to 100 | 1 to 100 |  |
| CS(=O)(=O)c1c([C@@H]2C[C@H]3CC[C@@H](C2)N3C(=O)CO)nc2c(-c3ccc(C4(O)CCCC4)nc3)cnn2c1N [Compound 7.47, 1-((1R,3s,5S)-3-(7-amino-3-(6-(1-hydroxycyclopentyl)pyridin-3-yl)-6-(methylsulfonyl)pyrazolo [1,5-a]pyrimidin-5-yl)-8-azabicyclo[3.2.1]octan-8-yl)-2-hydroxyethanone] | 100 to 1000 | 100 to 1000 |  |
| CS(=O)(=O)c1c([C@@H]2C[C@H]3CC[C@@H](C2)N3C(=O)c2nnc[nH]2)nc2c(-c3ccc(C4(O)COC4)nc3)cnn2c1N [Compound 7.48, ((1R,3s,5S)-3-(7-amino-3-(6-(3-hydroxyoxetan-3-yl)pyridin-3-yl)-6-(methylsulfonyl)pyrazolo [1,5-a]pyrimidin-5-yl)-8-azabicyclo[3.2.1]octan-8-yl)(4H-1,2,4-triazol-3-yl)methanone] | 1000 to 10000 | 1000 to 10000 |  |
| CS(=O)(=O)c1c([C@@H]2C[C@H]3CC[C@@H](C2)N3C(=O)CO)nc2c(-c3ccc(C4(O)COC4)nc3)cnn2c1N [Compound 7.49, 1-((1R,3s,5S)-3-(7-amino-3-(6-(3-hydroxyoxetan-3-yl)pyridin-3-yl)-6-(methylsulfonyl)pyrazolo [1,5-a]pyrimidin-5-yl)-8-azabicyclo[3.2.1]octan-8-yl)-2-hydroxyethanone] | 1000 to 10000 | 1000 to 10000 |  |
| CC(=O)c1c([C@@H]2C[C@H]3CC[C@@H](C2)N3C(=O)c2nnc[nH]2)nc2c(-c3ccc(C4(O)CCCC4)nc3)cnn2c1N [Compound 7.50, 1-(5-((1R,3s,5S)-8-(4H-1,2,4-triazole-3-carbonyl)-8-azabicyclo[3.2.1]octan-3-yl)-7-amino-3-(6-(1-hydroxycyclopentyl)pyridin-3-yl)pyrazolo[1,5-a]pyrimidin-6-yl)ethanone] | 1 to 100 | 1 to 100 |  |
| CC(O)c1ccc(-c2cnn3c(N)c(S(C)(=O)=O)c([C@@H]4C[C@H]5CC[C@@H](C4)N5C(=O)c4nnc[nH]4)nc23)cc1 (stereo partly drawn) [Compound 7.51, ((1R,3s,5S)-3-(7-amino-3-(4-(1-hydroxyethyl)phenyl)-6-(methylsulfonyl)pyrazolo [1,5-a]pyrimidin-5-yl)-8-azabicyclo[3.2.1]octan-8-yl)(4H-1,2,4-triazol-3-yl)methanone] | 1 to 100 | 1 to 100 |  |
| CC(=O)c1c([C@@H]2C[C@H]3CC[C@@H](C2)N3C(=O)c2nnc[nH]2)nc2c(-c3ccc(C(O)CO)nc3)cnn2c1N (stereo partly drawn) [Compound 7.52, 1-(5-((1R,3s,5S)-8-(4H-1,2,4-triazole-3-carbonyl)-8-azabicyclo[3.2.1]octan-3-yl)-7-amino-3-(6-(1,2-dihydroxyethyl)pyridin-3-yl)pyrazolo[1,5-a]pyrimidin-6-yl)ethanone] |  |  | IC50 [1, 4]: 1000 to 10000 nM; IC50 [2, 4]: 1000 to 10000 nM |
| CS(=O)(=O)c1c([C@H]2CC3CC[C@H](C2)N3C(=O)c2nnc[nH]2)nc2c(-c3cnc4c(c3)CCCC4O)cnn2c1N (stereo partly drawn) [Compound 7.53, ((1R,3s,5S)-3-(7-amino-3-(8-hydroxy-5,6,7,8-tetrahydroquinolin-3-yl)-6-(methylsulfonyl)pyrazolo [1,5-a]pyrimidin-5-yl)-8-azabicyclo[3.2.1]octan-8-yl)(4H-1,2,4-triazol-3-yl)methanone] |  |  | IC50 ([1]; PC-3, PC3 cells): 100 to 1000 nM; IC50 ([2]; PC-3, PC3 cells): 100 to 1000 nM |
| Nc1c(C2CC2)c([C@H]2CC3CC[C@H](C2)N3C(=O)c2nnc[nH]2)nc2c(-c3cnc4c(c3)CCCC4O)cnn12 (stereo partly drawn) [Compound 7.54, ((1R,3s,5S)-3-(7-amino-6-cyclopropyl-3-(8-hydroxy-5,6,7,8-tetrahydroquinolin-3-yl)pyrazolo[1,5-a]pyrimidin-5-yl)-8-azabicyclo[3.2.1]octan-8-yl)(4H-1,2,4-triazol-3-yl)methanone] |  |  | IC50 ([1]; PC-3, PC3 cells): 1 to 100 nM; IC50 ([2]; PC-3, PC3 cells): 1 to 100 nM |
| CC1(O)CCCc2cc(-c3cnn4c(N)c(C5CC5)c([C@H]5CC6CC[C@H](C5)N6C(=O)c5nnc[nH]5)nc34)cnc21 (stereo partly drawn) [Compound 7.55, ((1R,3s,5S)-3-(7-amino-6-cyclopropyl-3-(8-hydroxy-8-methyl-5,6,7,8-tetrahydroquinolin-3-yl)pyrazolo[1,5-a]pyrimidin-5-yl)-8-azabicyclo[3.2.1]octan-8-yl)(4H-1,2,4-triazol-3-yl)methanone] |  |  | IC50 ([1]; PC-3, PC3 cells): 100 to 1000 nM; IC50 ([2]; PC-3, PC3 cells): 100 to 1000 nM |
| [2H]C1(O)CCCc2cc(-c3cnn4c(N)c(C5CC5)c([C@H]5CC6CC[C@H](C5)N6C(=O)c5nnc[nH]5)nc34)cnc21 (stereo partly drawn) [Compound 7.56, DEUTERATED-(3- EXO)-3-[7-AMINO-6- CYCLOPROPYL-3- (5,6,7,8- TETRAHYDRO-8- HYDROXY-3- QUINOLINYL- (D))PYRAZOLO[1,5- a]PYRIMIDIN-5-YL]-8- (4H-1,2,4-TRIAZOL-3- YLCARBONYL)-8- AZABICYCLO[3.2.1] OCTANE] |  |  | IC50 ([1]; PC-3, PC3 cells): 1 to 100 nM; IC50 ([2]; PC-3, PC3 cells): 1 to 100 nM |
